Assay results published in patent US20250345277A1, “Ionizable Liposome, Preparation Thereof, and Application Thereof in Gene Delivery” (MAXIRNA (ZHEJIANG) TECHNOLOGY CO. LTD., priority 2021, published 2025).

Experiments:
[1] = Size and polydispersity index PDI of lipid nanoparticles (Malvern Zetasizer Nano ZS); assay type: physicochemical; conditions: LNP ionizable lipid/DOPE/cholesterol/DSPE-PEG2000 35/16/46.5/2.5 mol% encapsulating EGFP mRNA; for Particle Size: in nm (unit assumed)
Protocol: (§1) The ionizable lipid compound of Example 1 was dissolved in ethanol with DOPE, cholesterol and DSPE-PEG2000 (all purchased from AVT (Shanghai) Pharmaceutical Technology Co., Ltd.) at a molar ratio of 35:16:46.5:2.5 to prepare ethanol lipid solution, and enhanced green fluorescent protein (EGFP) mRNAs (Shanghai Maximna Pharmaceutical Engineering Co., Ltd., JN-4201) were diluted in 20 mM citrate buffer (pH=6.1) to obtain mRNA aqueous solution. Ethanol lipid solution and mRNA aqueous solution were mixed at a volume ratio of 1:3 by using a microfluidic device (Micro&Nano (Shanghai) Instrument Technology Co., Ltd., model: INano™ML), LNPs were prepared with a weight ratio of approximately 10:1 between total lipids and mRNAs. The medium was replaced by ultrafiltration, ethanol was removed and volumed with DPBS. Finally, the lipid nanoparticles were filtered through a 0.2 μm sterile filter to obtain a LNP formulation encapsulating eGFP mRNA using ionizable lipid/DOPE/cholesterol/DSPE-PEG2000 (35/16/46.5/2.5 mol %), the concentration of mRNAs being 0.002 mg/mL-0.5 mg/mL.
Using Malvern Zetasizer Nano ZS (Malvern UK), the size and polydispersity index PDI of lipid nanoparticles were measured at […].

[2] = Entrapment efficiency of LNP preparation encapsulating EGFP mRNA; assay type: physicochemical; conditions: LNP ionizable lipid/DOPE/cholesterol/DSPE-PEG2000 35/16/46.5/2.5 mol% encapsulating EGFP mRNA
Protocol: as §1, with “mg/mL. […]” for “mg/mL.”

DC2.4 cells = test: In vitro transfection of DC2.4 cells with EGFP mRNA LNP preparation (flow cytometry); assay type: cell-based, mouse; conditions: DC2.4 cells; for Cell Viability / Positive Rate (EGFP): EGFP mRNA LNP, 200 ng mRNA per well, flow cytometry; for Fluorescence Intensity: EGFP mRNA expression level, normalized based on the sample with the highest fluorescence intensity
Description: The description is based on peripheral blood mononuclear cells PBMC (Shanghai Oribiotech Co., Ltd.), human peripheral blood leukemia T cell Jurkat (ATCC), tumor infiltrating lymphocyte TIL (isolated from resected tumor tissue of a liver cancer patient, the preparation method refers to CN114763530A), mouse bone marrow-derived dendritic cells DC2.4 (Cell Bank of the Chinese Academy of Sciences), and Chinese hamster ovary cells CHO (ATCC) were used as verified cell lines for liposome transfection. PBMC, Jurkat, and TIL cells grew in suspension, while DC2.4 and CHO cells grew by adherent culture. All the operation steps of cell culture must strictly abide by the prescribed procedures, and sterile reagents is used to perform aseptic operations under a sterile workbench. The main steps are as follows: • 1) Cell recovery: the preserved cell cryopreservation solution was taken out of the −80° C. refrigerator, and was immediately put in a 37° C. water bath for rapid and continuous shaking, and was completely melted within one minute. Fresh medium was added to the 15 mL centrifuge tube in advance, and the cell solution was added to the centrifuge tube in a biological safety cabinet. A centrifuge tube of the same quality was taken and placed symmetrically in a centrifuge, centrifuged at a low speed at 1200 rpm for 5 min. After centrifugation, the supernatant was removed, and an appropriate amount of medium was slowly added along the tube wall. After the cells were evenly dispersed by blowing gently, the cell suspension was pipette and added to the culture bottle prepared in advance. The state and distribution of the cells in the early stage of recovery were observed under a microscope. The culture bottle was placed in a 5% CO2 incubator and incubated at 37° C., and the recovery time was recorded. • 2) Cell subculture: Under the microscope, if the cell density in the field of view reaches 80%-90%, the cells can be subcultured. Adherent cells need to be digested with trypsin. In order to avoid the residual serum in the culture medium to reduce the activity of trypsin, DPBS solution was added to wash once after removing the original culture medium. After remove the DPBS solution, trypsin was added to degrade the protein at the junction between cells. This separates the cells for further culture. The cells were gently shaked evenly and put into the incubator for digestion for 2 min. Immediately after the digestion was completed, an appropriate amount of medium was added to the original petri dish to terminate the digestion. Finally, the cells were carefully blowed off using a pipette and blowed until they are evenly dispersed, and then inoculated and subcultured at a certain ratio according to the experimental requirements. […]
• 1) DC2.4 cells recovery: the frozen DC2.4 cells were taken out from the −80° C. refrigerator, put in a 37° C. water bath to quickly thaw the cells, added to the preheated medium after thawing, centrifuged at 1200 rpm for 5 min, the supernatant was discarded, and an appropriate amount of DMEM medium with 10% FBS was added to resuspend the recovered DC2.4, and placed in a 5% CO2 incubator at 37° C. for activation and culture. • 2) According to the experimental arrangement, DC2.4 cells were plated on a 24-well plate one day in advance for cell transfection. Through cell counting, the number of cells and cell viability were recorded, the cell suspension were taken at 2×10^5 cells per well, then a certain volume of DMEM medium containing 10% FBS was added and mixed evenly, 1 mL of mixture was added to each well for subsequent transfection experiment. • 3) After 24 hours, the medium was gently removed 30 minutes in advance by a pipette, 1 mL DPBS was added to each well for washing and then removed, then 300 μL serum-free Opti-MEM medium was added to each well for subsequent transfection experiments.
Subsequent steps are the same as the transfection protocol for PBMC cells. […]

| SMILES | PDI [1] | Particle Size [1] | Entrapment Efficiency [2] [%] | Cell Viability (DC2.4 cells) [%] | Positive Rate (EGFP) (DC2.4 cells) [%] | Fluorescence Intensity (DC2.4 cells) |
| --- | --- | --- | --- | --- | --- | --- |
| CCCCCCCCCCCCC(O)CN(CCOCCN(CCOCCN(CC(O)CCCCCCCCCCCC)CC(O)CCCCCCCCCCCC)CCN1CCN(CCO)CC1)CC(O)CCCCCCCCCCCC (stereo not drawn) [J-C14] | 0.121 | 126.1 | 83.58 | >99.0 | 59.1 | 0.06 |
| CCCCCCCCCCCCCCC(O)CN(CCOCCN(CCOCCN(CC(O)CCCCCCCCCCCCCC)CC(O)CCCCCCCCCCCCCC)CCN1CCN(CCO)CC1)CC(O)CCCCCCCCCCCCCC (stereo not drawn) [J-C16] | 0.077 | 104.1 | 81.08 | 85.2 | 62.0 | 0.04 |
| CCCCCCCCCCC(O)CN(CCOCCOCCOCCN(CCOCCOCCOCCN(CC(O)CCCCCCCCCC)CC(O)CCCCCCCCCC)CCN1CCN(CCO)CC1)CC(O)CCCCCCCCCC [L-C12] | 0.181 | 88.4 | 93.38 | 84.9 | 58.1 | 0.07 |
| CCCCCCCCCCC(O)CN(CCOCCOCCOCCN(CCOCCOCCOCCN(CC(O)CCCCCCCCCC)CC(O)CCCCCCCCCC)CCN1CCN(C)CC1)CC(O)CCCCCCCCCC (stereo not drawn) [H-C12] | 0.136 | 95.9 | 94.13 | 86.0 | 74.3 | 0.78 |
| CCCCCCCCCCC(O)CN(CCOCCN(CCOCCN(CC(O)CCCCCCCCCC)CC(O)CCCCCCCCCC)CCN1CCN(C)CC1)CC(O)CCCCCCCCCC (stereo not drawn) [F-C12] | 0.133 | 77.7 | 92.31 | 87.1 | 63.9 | 0.28 |
| CCCCCCCCCCCCCCCCC(O)CN(CCOCCN(CCOCCN(CC(O)CCCCCCCCCCCCCCCC)CC(O)CCCCCCCCCCCCCCCC)CCN1CCN(C)CC1)CC(O)CCCCCCCCCCCCCCCC (stereo not drawn) [F-C18] | 0.081 | 77.2 | 80.61 | 93.5 | 61.5 | 0.67 |
| CCCCCCCCCCCCCCC(O)CN(CCN(CCN1CCN(C)CC1)CCN(CC(O)CCCCCCCCCCCCCC)CC(O)CCCCCCCCCCCCCC)CC(O)CCCCCCCCCCCCCC (stereo not drawn) [E-C16] | 0.107 | 76.9 | 91.51 | 94.4 | 59.9 | 0.71 |
| CCCCCCCCCCCCC(O)CN(CCOCCOCCOCCN(CCOCCOCCOCCN(CC(O)CCCCCCCCCCCC)CC(O)CCCCCCCCCCCC)CCN1CCN(CCO)CC1)CC(O)CCCCCCCCCCCC [L-C14] | 0.126 | 101.5 | 91.54 | 99.0 | 60.0 | 0.04 |
| CCCCCCCCCCCCCCC(O)CN(CCOCCOCCOCCN(CCOCCOCCOCCN(CC(O)CCCCCCCCCCCCCC)CC(O)CCCCCCCCCCCCCC)CCN1CCN(CCO)CC1)CC(O)CCCCCCCCCCCCCC [L-C16] | 0.085 | 111.5 | 92.34 | 97.2 | 64.8 | 0.06 |
| CCCCCCCCCCC(O)CN(CCOCCOCCN(CCOCCOCCN(CC(O)CCCCCCCCCC)CC(O)CCCCCCCCCC)CCN1CCN(CCO)CC1)CC(O)CCCCCCCCCC (stereo not drawn) [K-C12] | 0.075 | 75.9 | 92.83 | >99.0 | 62.8 | 0.07 |
| CCCCCCCCCCCCCCCCC(O)CN(CCOCCOCCOCCN(CCOCCOCCOCCN(CC(O)CCCCCCCCCCCCCCCC)CC(O)CCCCCCCCCCCCCCCC)CCN1CCN(C)CC1)CC(O)CCCCCCCCCCCCCCCC (stereo not drawn) [H-C18] | 0.143 | 73.8 | 80.61 | 97.4 | 81.9 | 0.38 |
| CCCCCCCCCCCCC(O)CN(CCOCCOCCN(CCOCCOCCN(CC(O)CCCCCCCCCCCC)CC(O)CCCCCCCCCCCC)CCN1CCN(CCO)CC1)CC(O)CCCCCCCCCCCC (stereo not drawn) [K-C14] | 0.155 | 122.7 | 87.00 | 82.3 | 59.8 | 0.03 |
